{"source": "patent US11938121B2", "about": "“Treatment of infections and biofilm formation using a cellulose synthase inhibitor” (Purdue Research Foundation, priority 2020, dated 2024)", "key": {"maize (Zea mays)": {"test_system": "maize (Zea mays)", "assay": "Maize seedling root growth", "format": "in vivo", "conditions": "20 μM", "from_the_text": "ES20 has broad spectrum inhibitory effect on the growth of both dicotyledonous and monocotyledonous plants (Huang and Zhang, Plant Signal Behav. 2020, 15, 1780039). We tested whether ES20-1 has stronger inhibitory effect on the growth of monocotyledon plants than ES20. We grew rice (Oryza sativa) and maize (Zea mays) seedlings on the same concentrations of ES20 and ES20-1 and compared their effects on growth."}, "Komagataeibacter xylinus [1]": {"test_system": "Komagataeibacter xylinus", "assay": "K. xylinus cell growth on HS solid medium", "format": "cell-based", "conditions": "6 days", "from_the_text": "Based on primary protein sequence analysis and a comparison of three-dimensional protein structures, the catalytic sites of cellulose synthases are highly conserved across kingdoms (Huang et al., 2020, Purushotham et al., 2020). The amino acids that are directly involved in glucan chain initiation, elongation, and translocation are conserved between plant and bacterial cellulose synthases (Huang et al., 2020). Based on the conservation of catalytic sites in cellulose synthases, we hypothesized that ES20 and ES20-1 would inhibit bacterial cellulose biosynthesis as well. We chose to test the effects of ES20 and ES20-1 on cell growth and cellulose production in Komagataeibacter xylinus (K. xylinus, previously known as Gluconacetobacter xylinus) because this bacterium produces abundant cellulose. We first tested whether ES20 and ES20-1 affect K. xylinus cell growth. We grew K. xylinus cells in liquid […] (HS) medium and then we inoculated 20 μL of series diluted culture to HS solid growth medium supplemented with DMSO (0.1%) or different concentrations of ES20 and ES20-1. […] We found ES20 and ES20-1 affect K. xylinus colony morphology as well. […] Wrinkles radiating structure is often observed in cellulose-producing bacteria strains and this structure is often affected when cellulose biosynthesis is disrupted.\nKomagataeibacter xylinus (previously named Gluconacetobacter xylinus) ATCC strain 700178 was obtained from ATCC (Manassas, Va., USA) to evaluate cellulose production. HS (Hestrin and Schramm) medium was used for culture; HS liquid medium contains 2.0% glucose (w/v), 0.5% yeast extract (w/v), 0.5% peptone (w/v), 0.27% Na2HPO4 (w/v), and 0.15% citric acid (w/v), pH 5.0, and HS solid medium was solidified with 1.8% agar (w/v). To prepare the initial inoculation source, a single K. xylinus colony grown on HS solid medium was transferred to HS liquid medium and cultured at 26° C. for 5 days under static conditions. We used cells from the bottom of the liquid culture as the initial inoculation source to avoid biofilm aggregates at the air-liquid interface. To test the effect of ES20 and ES20-1 on the bacteria growth, initial inoculation source was series diluted and 20 μL culture from each diluted solution was dropped on HS solid medium supplemented with DMSO (0.1%) or different concentrations of ES20 and ES20-1 and cultured at 26° C. for 6 days after the dropped culture was completely dry. To test the effects of ES20 and ES20-1 on cellulose production, the prepared inoculation source was inoculated at a dilution ratio of 1:1000 dilution in HS liquid medium supplemented with 0.1% DMSO or 20 μM of ES20 or ES20-1. Static cultivation was carried out in a 26° C. incubator, and agitated cultivation was carried out at 26° C. with shaking at 220 rpm. […]"}, "Komagataeibacter xylinus [2]": {"test_system": "Komagataeibacter xylinus", "assay": "K. xylinus cellulose production in liquid culture", "format": "cell-based", "conditions": "20 μM", "from_the_text": "We next grew K. xylinus cells in growth medium supplemented with DMSO, ES20, or ES20-1 under agitation. […] We also grew K. xylinus in liquid medium supplemented with DMSO, ES20, or ES20-1 under static cultivation conditions. Without agitation, pellicles containing cellulose often form at the air-liquid interface. […] To quantify the effects of ES20 and ES20-1 on cellulose production, we harvested the pellicles from these cultures and isolated cellulose from the pellicles.\nKomagataeibacter xylinus (previously named Gluconacetobacter xylinus) ATCC strain 700178 was obtained from ATCC (Manassas, Va., USA) to evaluate cellulose production. HS (Hestrin and Schramm) medium was used for culture; HS liquid medium contains 2.0% glucose (w/v), 0.5% yeast extract (w/v), 0.5% peptone (w/v), 0.27% Na2HPO4 (w/v), and 0.15% citric acid (w/v), pH 5.0, and HS solid medium was solidified with 1.8% agar (w/v). To prepare the initial inoculation source, a single K. xylinus colony grown on HS solid medium was transferred to HS liquid medium and cultured at 26° C. for 5 days under static conditions. We used cells from the bottom of the liquid culture as the initial inoculation source to avoid biofilm aggregates at the air-liquid interface. To test the effect of ES20 and ES20-1 on the bacteria growth, initial inoculation source was series diluted and 20 μL culture from each diluted solution was dropped on HS solid medium supplemented with DMSO (0.1%) or different concentrations of ES20 and ES20-1 and cultured at 26° C. for 6 days after the dropped culture was completely dry. To test the effects of ES20 and ES20-1 on cellulose production, the prepared inoculation source was inoculated at a dilution ratio of 1:1000 dilution in HS liquid medium supplemented with 0.1% DMSO or 20 μM of ES20 or ES20-1. Static cultivation was carried out in a 26° C. incubator, and agitated cultivation was carried out at 26° C. with shaking at 220 rpm. To isolate cellulose from pellicles, the pellicles were removed from liquid culture, washed several times with deionized water, and soaked in 0.1 M NaOH at 80° C. for 2 h. The pellicles were washed several times with deionized water to completely remove the alkali. The purified cellulose was dried at 60° C. for ˜1 day until a constant dry mass was reached."}, "[3]": {"test_system": "AtCESA6 carrying missense mutations in prc1-1", "assay": "Root growth of transgenic plants expressing mutated AtCESA6 in prc1-1", "format": "in vivo, Arabidopsis thaliana", "conditions": "D562N, D564N, D785N, Q823E, R826A, W827A in prc1-1", "from_the_text": "We then examined whether transgenic plants expressing AtCESA6 with predicted missense mutations at the catalytic site in prc1-1 background would have altered sensitivity to active ES20 analogs. […] However, the responses of two transgenic lines expressing AtCESA6 carrying missense mutations outside of the catalytic site (L365F and D395N) to nine active ES20 analogs were similar to those of wild-type plants (FIG. 2B).\nTo test the inhibitory effects of different chemicals on plant growth, wild-type Arabidopsis Col-0 plants were used. The seeds of plants used for growth assays or live cell imaging were sequentially sterilized with 50% bleach and 75% ethanol. […] To quantify the inhibitory effects of different ES20 active analogs on the root growth of Arabidopsis wildtype, EMS mutants, and transgenic plants expressing mutated AtCESA6 in prc1-1 background, sterilized Col-0, mutants, and transgenic plants seeds were sown on gridded Petri plates containing ½-strength MS medium supplemented with different concentrations of ES20 analogs. […] The plates were scanned using an Epson Perfection V550 scanner after 7 days of growth, and the root lengths of plants were quantified using ImageJ software. […] The Petri dishes were scanned, and hypocotyl length was measured using ImageJ. […]"}, "[4]": {"test_system": "AtCESA6 (cesa6 alleles es20r1-es20r15)", "assay": "Root growth of EMS-induced cesa6 mutants es20r1-es20r15 on ES20 analogs", "format": "in vivo, Arabidopsis thaliana", "conditions": "compared with wild-type/control plants", "from_the_text": "A subset of active ES20 analogs likely target the catalytic domain of AtCESA6. […] Since ES20 and the nine active ES20 analogs share highly similar structures, we reasoned whether these active analogs target AtCESA6 as well. We therefore examined the growth of es20r1-es20r15 plants in the presence of nine active ES20 analogs compared to wild-type plants.\nTo test the inhibitory effects of different chemicals on plant growth, wild-type Arabidopsis Col-0 plants were used. The seeds of plants used for growth assays or live cell imaging were sequentially sterilized with 50% bleach and 75% ethanol. […] To quantify the inhibitory effects of different ES20 active analogs on the root growth of Arabidopsis wildtype, EMS mutants, and transgenic plants expressing mutated AtCESA6 in prc1-1 background, sterilized Col-0, mutants, and transgenic plants seeds were sown on gridded Petri plates containing ½-strength MS medium supplemented with different concentrations of ES20 analogs. […] The plates were scanned using an Epson Perfection V550 scanner after 7 days of growth, and the root lengths of plants were quantified using ImageJ software. […] The Petri dishes were scanned, and hypocotyl length was measured using ImageJ. Transgenic plants expressing fluorescence-tagged PIN2, PIP2a, HDEL, VHA-a1, and GOT1p were as reported previously (Xu and Scheres, Plant Cell, 2005, 17, 525-536)."}, "[5]": {"conditions": "5 days static cultivation, vs DMSO"}}}
{"smiles": "Cc1ccccc1C(=O)NNC(=S)NC(=O)c1ccccc1", "note": "[ES20-1]", "values": [{"measurement": "maize root growth inhibition", "setting": "maize (Zea mays); 6-day-old seedlings", "value": "could inhibit the root growth"}, {"measurement": "degree of maize root growth inhibition compared with ES20", "setting": "maize (Zea mays); same dosage", "value": "much stronger than that of the same dosage of ES20"}, {"measurement": "K. xylinus cell growth inhibition", "setting": "Komagataeibacter xylinus [1]; 20 μM and 50 μM", "value": "inhibit K. xylinus cell growth at both 20 μM and 50 μM concentrations"}, {"measurement": "K. xylinus colony morphology (wrinkles radiating structures)", "setting": "Komagataeibacter xylinus [1]; 20 μM", "value": "the wrinkles are not obvious"}, {"measurement": "size of cellulose clusters", "setting": "Komagataeibacter xylinus [2]; 5 days agitated cultivation, vs DMSO", "value": "smaller"}, {"measurement": "dry mass of cellulose from pellicles", "setting": "Komagataeibacter xylinus [2]; 5 days static cultivation, mean±SD, n=9", "value": "346 ± 152", "unit": "mg/L"}, {"measurement": "decrease of dry mass of cellulose from pellicles", "setting": "Komagataeibacter xylinus [2]; [5]", "value": "~30", "unit": "%"}, {"measurement": "pellicle thickness", "setting": "Komagataeibacter xylinus [2]; [5]", "value": "pellicles in cultures containing DMSO are thicker"}, {"measurement": "sensitivity of transgenic lines with AtCESA6 catalytic site mutations", "setting": "[3]", "value": "Reduced sensitivity"}, {"measurement": "sensitivity of es20r1-es20r15 mutants in growth", "setting": "[4]", "value": "All 15 mutants, which show reduced sensitivity to ES20, also showed reduced sensitivity"}]}
